{
  "source": "patent US20180243190A1",
  "about": "“ACTIVATORS OF NRF2-DEPENDENT PHOTOPROTECTION AND RELATED USES THEREOF” (THE ARIZONA BOARD OF REGENTS ON BEHALF OF THE UNIVERSITY OF …, priority 2015, published 2018)",
  "key": {"[1]": {"system": "NRF2, KEAP1, GCLM, AKR1C1 mRNA", "experiment": "Quantitative real-time RT-PCR in HaCaT cells", "type": "cell-based, human", "details": "40 μM, 4 h and 16 h", "description": "Total RNA was extracted from HaCaT cells and mouse skin tissues using TRIzol (Invitrogen). Equal amounts of mRNA were used to generate cDNA using the M-MLV Reverse Transcriptase synthesis kit according to the manufacturer's instructions (Promega). RT-PCR and primer sequences of NRF2, KEAP1, GCLM, AKR1C1 and GAPDH were described previously to evaluate mRNA expression using the LightCycler 480 system (Roche). Quantification of cDNA amount for mouse Nrf2, Keap1, Gclm, and Akr1c1 in each skin tissue sample was performed using the KAPA SYBR FAST qPCR Kit (Kapa Biosystems)."}, "[2]": {"molecular_target": "T1, KEAP1 wild type (KEAP1-WT) (Homo sapiens, UniProt Q14145)", "T1 construct": "expressed in transfected cells; host or cells: HaCaT human keratinocytes", "type": "cell-based", "details": "SF 5 μM, As 5 μM, bixin 40 μM; 16 h", "description": "(§1) Since it has been shown previously that NRF2 activation by canonical inducers (including SF and tBHQ) depends on C (Cys)-151, a critical cysteine residue in KEAP1, the mechanistic involvement of KEAP1-C151 bixin-based NRF2 activation was examined. HaCaT cells were cotransfected with expression vectors for either KEAP1 wild type (KEAP1-WT) or a mutant KEAP1 (KEAP1-C151S; Cys-151 mutated to serine) along with ARE-firefly luciferase and Renilla luciferase reporters to assess NRF2 transcriptional activity (FIG. 3G). After exposure to SF (5 μM), As (sodium arsenite; 5 μM), or bixin (40 μM; all 16 h), NRF2 transcriptional activity was enhanced by all treatments in KEAP1-WT cells, whereas NRF2 activation by SF or bixin was abolished in KEAP1-C151S cells.\n(§2) Transfection of cDNA was performed using Lipofectamine 3000 (Invitrogen) according to the manufacturer's instructions. Activation of NRF2 transcriptional activity was performed as previously published. Briefly, HaCaT cells were cotransfected with expression vectors for either KEAP1 wild type (KEAP1-WT) or KEAP1 with a mutation that generates a protein that contains a serine residue instead of a cysteine (KEAP1-C151S), along with NQO1-ARE firefly luciferase and Renilla luciferase reporters. At 24 h post-transfection, cells were left untreated or treated with SF (5 μM), As (5 μM), or bixin (40 μM) for 16 h. The cells were then lysed for analysis of the reporter gene activity using the Promega dual-luciferase reporter gene assay system."}, "KEAP1-C151S": {"molecular_target": "T2, KEAP1-C151S (Homo sapiens, UniProt Q14145, C151S)", "T2 construct": "expressed in transfected cells; host or cells: HaCaT human keratinocytes", "T2 sequence (Q14145 whole entry C151S)": "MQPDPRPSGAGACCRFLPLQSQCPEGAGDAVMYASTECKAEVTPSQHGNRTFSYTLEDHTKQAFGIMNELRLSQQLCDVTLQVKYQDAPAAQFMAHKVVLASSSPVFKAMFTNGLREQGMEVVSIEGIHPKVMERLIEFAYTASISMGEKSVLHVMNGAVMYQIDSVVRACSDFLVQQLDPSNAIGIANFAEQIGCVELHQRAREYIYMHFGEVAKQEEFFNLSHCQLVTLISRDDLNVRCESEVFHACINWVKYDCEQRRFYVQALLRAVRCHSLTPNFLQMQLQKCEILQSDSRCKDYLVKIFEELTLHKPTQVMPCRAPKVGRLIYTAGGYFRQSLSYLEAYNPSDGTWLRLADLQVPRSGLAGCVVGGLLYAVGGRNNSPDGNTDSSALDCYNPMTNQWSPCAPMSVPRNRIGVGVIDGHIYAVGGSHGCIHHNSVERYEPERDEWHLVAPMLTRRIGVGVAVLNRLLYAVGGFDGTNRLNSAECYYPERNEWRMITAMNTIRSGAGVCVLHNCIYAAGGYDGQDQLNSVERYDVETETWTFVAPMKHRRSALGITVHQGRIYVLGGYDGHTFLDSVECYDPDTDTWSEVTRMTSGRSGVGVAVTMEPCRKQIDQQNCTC", "type": "cell-based", "details": "SF 5 μM, As 5 μM, bixin 40 μM; 16 h", "description": "as §1, §2"}, "[3]": {"design": "species or system SKH-1 mice", "details": "mouse, in vivo, 200 mg/kg", "description": "To explore the potential systemic photoprotective activity of bixin in a murine skin sunburn model, the feasibility of upregulating cutaneous NRF2 activity by systemic administration was first examined. It has been reported earlier that efficient cutaneous accumulation of dietary carotenoids requires prolonged nutritional supplementation over weeks and that pharmacokinetic parameters of cutaneous delivery of dietary carotinoids differ between humans and mice. Therefore, in order to circumvent the more complex pharmacokinetics associated with dietary supplementation, an intraperitoneal (i.p.) route for bixin systemic administration followed by examination of cutaneous NRF2 status was chosen. After i.p. injection of bixin (200 mg/kg) performed in Nrf2^+/+ and Nrf2^−/− mice, plasma was collected at 0, 1, 2, 4, 8, 16, 24, 48 and 72 h after injection followed by HPLC-photodiode array detection (FIG. 4A-C). […] Next, efficacy of various bixin treatment regimens (differing with regard to total dose and time after injection) for maximum activation of the NRF2 pathway in murine skin was determined (FIG. 4D).\nElectrospray mass spectrometry of bixin [dissolved in tetrahydrofuran and diluted tenfold in acetonitrile/NH4OH (0.1 N); ESI-MS (negative ion mode) m/z 393.21 (M−1)^−] was performed using a Bruker Apex FT/ICR mass spectrometer. […]"}},
  "data": [
    {"smiles": "COC(=O)/C=C/C(C)=C\\C=C\\C(C)=C\\C=C\\C=C(C)\\C=C\\C=C(C)\\C=C\\C(=O)O", "note": "[bixin]", "values": [
      {"measurement": "NRF2 or KEAP1 mRNA levels", "setting": "[1]", "value": "without affecting"},
      {"measurement": "NRF2 target genes at the mRNA level (GCLM, AKR1C1)", "setting": "[1]", "value": "pronounced upregulation"},
      {"measurement": "NRF2 transcriptional activity in KEAP1-WT cells", "setting": "[2]", "value": "enhanced"},
      {"measurement": "NRF2 activation in KEAP1-C151S cells", "setting": "KEAP1-C151S", "value": "abolished"},
      {"measurement": "AUC, Nrf2+/+ versus Nrf2−/−", "setting": "[3]", "value": "did not differ significantly"},
      {"measurement": "peak plasma concentration (Cmax)", "setting": "[3]; ip", "value": "up to 11.3 μg/ml"},
      {"measurement": "DCF fluorescence after compound only (no dye sensitization)", "setting": "HaCaT keratinocytes", "value": "did not cause an increase"},
      {"measurement": "protection against 1O2-induced oxidative stress", "setting": "HaCaT keratinocytes; HaCaT, 20 μM, 1 h preincubation", "value": "without protective effects"},
      {"measurement": "suppression of 1O2-induced increase in DCF fluorescence", "setting": "HaCaT keratinocytes; HaCaT, 20 μM, 24 h preincubation", "value": "efficiently suppressed"}
    ]}
  ]
}
